{"source": "patent US20250011364A1", "about": "“TUMOR TISSUE-PENETRATING PEPTIDE, SPECIFICALLY BINDING TO NEUROPILIN 1, FOR DRUG DELIVERY TO TUMOR, AND USE THEREOF” (CELLICON LAB INC., priority 2022, published 2025)", "key": {"AsPC-1 xenograft [1]": {"tested_on": "AsPC-1 xenograft", "assay": "Tumor tissue penetration of FITC-albumin, confocal microscopy", "type": "in vivo, mice", "settings": "FITC-albumin iv in conjugation/combination with peptide vs singly, tumor extracted 1, 3 and 24 hours later (FIG. 5)", "description": "In order to examine the effect of the peptide of SEQ ID NO: 8 of the present invention on improving the tumor tissue-penetrating ability of physiologically active substances, FITC-albumin was injected intravenously (iv) singly or in conjugation/combination with the tumor tissue-penetrating peptide (five minutes) into tumor-induced AsPC-1 xenograft mice, the tumor was extracted 1, 3, and 24 hours later, and analysis was performed using a confocal microscope (albumin molecular weight: about 70 kDa)."}, "AsPC-1 cells": {"tested_on": "AsPC-1 cells", "assay": "MTT assay: improvement of anticancer efficacy of doxorubicin", "type": "cell-based", "settings": "48 hours, compared to the group treated with only doxorubicin (FIG. 1)", "description": "In order to examine the function of the present invention as a tumor tissue-penetrating peptide, the effect of the present invention on improving the anticancer efficacy of doxorubicin was evaluated. Specifically, the effect of a tumor tissue-penetrating peptide consisting of any one amino acid sequence selected from SEQ ID NO: 5 to SEQ ID NO: 8 of the present invention and SEQ ID NO: 1 to SEQ ID NO: 4, derivatives thereof, on improving the anticancer efficacy of doxorubicin was evaluated.\nSpecifically, in order to evaluate the effect of improving anticancer efficacy, AsPC-1 cells were used to perform the MTT assay, and cell viability was analyzed and compared (FIG. 1).\nPancreatic cancer cells (AsPC-1) were cultured in 96-well plates at 2×10^5 cells/ml for 24 hours, then treated with samples at various concentrations, and cultured for another 48 hours. […] After 4 hours, the MTT solution was removed, DMSO was added to each well to dissolve formazan at 37° C. for 30 minutes, and then the absorbance was measured at 570 nm using a microplate reader (Molecular Devices Spectra MAX, Sunnyvale, CA, USA). In all experiments, the results were statistically processed by taking the average value for three wells for each concentration, and expressed as a relative viability (%) compared to that in the group treated with no sample."}, "NRP-1": {"target": "NRP-1 (Homo sapiens, UniProt O14786)", "sequence (O14786 22-923)": "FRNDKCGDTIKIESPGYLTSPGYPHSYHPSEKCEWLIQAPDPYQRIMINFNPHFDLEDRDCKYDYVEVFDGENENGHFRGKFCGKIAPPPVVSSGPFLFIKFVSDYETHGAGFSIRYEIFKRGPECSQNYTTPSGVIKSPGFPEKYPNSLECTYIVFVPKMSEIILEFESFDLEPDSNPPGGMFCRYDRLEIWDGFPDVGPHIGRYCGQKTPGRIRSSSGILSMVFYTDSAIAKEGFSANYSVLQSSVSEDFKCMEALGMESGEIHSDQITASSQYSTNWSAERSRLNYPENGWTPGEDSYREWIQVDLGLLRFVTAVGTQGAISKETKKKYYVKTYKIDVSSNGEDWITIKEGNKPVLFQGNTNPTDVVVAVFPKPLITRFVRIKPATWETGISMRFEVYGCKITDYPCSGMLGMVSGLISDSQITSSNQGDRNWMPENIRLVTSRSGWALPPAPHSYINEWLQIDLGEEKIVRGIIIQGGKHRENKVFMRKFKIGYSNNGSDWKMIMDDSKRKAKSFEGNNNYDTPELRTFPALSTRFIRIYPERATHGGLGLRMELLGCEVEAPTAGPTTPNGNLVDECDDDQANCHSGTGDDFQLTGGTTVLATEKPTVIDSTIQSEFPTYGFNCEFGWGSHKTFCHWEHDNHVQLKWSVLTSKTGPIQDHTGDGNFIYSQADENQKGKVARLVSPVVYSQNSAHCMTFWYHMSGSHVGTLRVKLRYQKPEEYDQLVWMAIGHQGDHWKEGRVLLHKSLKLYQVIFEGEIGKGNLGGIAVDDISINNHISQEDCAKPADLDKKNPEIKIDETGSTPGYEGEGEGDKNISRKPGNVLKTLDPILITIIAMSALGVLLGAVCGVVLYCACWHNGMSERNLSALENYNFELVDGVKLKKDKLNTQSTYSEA", "assay": "Competitive ELISA assay, inhibition of VEGF 165 binding to NRP-1", "settings": "NRP-1 treated with peptide and VEGF, competitive ELISA (FIG. 6)", "description": "Therefore, the tumor tissue-penetrating peptide is more likely to bind to NRP-1 competitively, and thus can interfere with neovascularization, and this means that the tumor tissue-penetrating peptide can suppress tumor growth (FIG. 6)."}, "AsPC-1 xenograft [2]": {"tested_on": "AsPC-1 xenograft", "assay": "Tumor tissue penetration of doxorubicin, confocal microscopy of tumor slides", "type": "in vivo, mice", "settings": "peptide 5 μM/kg iv, doxorubicin 10 mg/kg iv 10 minutes later, tumor extracted 24 hours later; vs doxorubicin only and doxorubicin + iRGD (FIG. 4)", "description": "In order to examine the effect of the peptide of SEQ ID NO: 8 of the present invention on improving the tumor tissue-penetrating ability of a physiologically active substance, tumor-induced AsPC-1 xenograft mice were treated with only doxorubicin, doxorubicin and iRGD as a positive control, or with tumor tissue-penetrating peptide, and the effect was compared.\nSpecifically, iRGD or tumor tissue-penetrating peptide (5 μM/kg) was injected intravenously (iv) into AsPC-1 xenograft mice, doxorubicin (Dox; 10 mg/kg) was injected intravenously 10 minutes later, and then the tumor was extracted 24 hours later to construct paraffin slides. The slides were stained with anti-CD31-FITC (vascular endothelial cell marker), and Dox (red)/CD31 (FITC) was analyzed using a confocal microscope."}}}
{"substance": "H2N-[Arg-Lys-Leu-Phe-Arg-Lys-Ile-Leu-Lys-Tyr-Leu-Arg]-CO2H (RKLFRKILKYLR) [SEQ ID NO: 8, tumor tissue-penetrating peptide]", "values": [{"measurement": "tumor-penetrating ability of albumin", "setting": "AsPC-1 xenograft [1]", "result": "increased"}, {"measurement": "effect of improving anticancer efficacy of doxorubicin (cell viability)", "setting": "AsPC-1 cells", "result": "most effective"}, {"measurement": "NRP-1 binding of VEGF165", "setting": "NRP-1", "result": "decreases"}, {"measurement": "tumor tissue-penetrating ability of doxorubicin", "setting": "AsPC-1 xenograft [2]", "result": "significantly superior"}]}
